# Measurements: article PMC7999182, “Interaction of Remdesivir with Clinically Relevant Hepatic Drug Uptake Transporters” (Pharmaceutics, 2021)
# Tests used:
# OATP1B1 [1] = test system: OATP1B1; parameters: method as in earlier work; details: prototypic substrate not stated; cited from earlier work
# OATP1B1 [2] = biological target: T1, OATP1B1 (Homo sapiens, UniProt Q9Y6L6); assay: Inhibition of OATP1B1-mediated BSP uptake; assay type: cell-based
# T1 construct: expressed in transfected cells
# T1 sequence (Q9Y6L6 1-691): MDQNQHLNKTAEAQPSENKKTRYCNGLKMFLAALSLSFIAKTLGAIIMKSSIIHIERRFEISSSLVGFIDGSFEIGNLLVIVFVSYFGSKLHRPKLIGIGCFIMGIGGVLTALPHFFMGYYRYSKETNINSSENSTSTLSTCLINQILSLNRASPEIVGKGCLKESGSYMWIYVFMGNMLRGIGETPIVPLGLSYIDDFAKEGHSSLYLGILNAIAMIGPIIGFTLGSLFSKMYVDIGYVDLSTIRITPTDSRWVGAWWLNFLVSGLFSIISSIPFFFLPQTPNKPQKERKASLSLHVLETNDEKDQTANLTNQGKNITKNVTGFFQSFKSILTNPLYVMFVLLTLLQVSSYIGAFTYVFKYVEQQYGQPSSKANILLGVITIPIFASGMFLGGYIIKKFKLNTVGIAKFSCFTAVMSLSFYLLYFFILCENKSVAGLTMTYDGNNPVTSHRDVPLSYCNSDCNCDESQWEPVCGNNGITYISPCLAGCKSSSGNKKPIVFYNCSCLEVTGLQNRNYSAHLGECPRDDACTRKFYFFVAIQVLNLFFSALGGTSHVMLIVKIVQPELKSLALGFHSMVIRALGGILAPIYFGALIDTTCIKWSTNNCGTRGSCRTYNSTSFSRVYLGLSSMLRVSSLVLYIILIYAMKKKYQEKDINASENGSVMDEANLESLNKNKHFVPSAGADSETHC
# Text: Generation, cultivation and characterization of human embryonic kidney (HEK) cells stably expressing OATP1B1 refseq (=OATP1B1*1a), OATP1B1*1b, OATP1B1*5 and OATP1B1*15 [18], OATP1B3 [19], OATP2B1 [13] and OCT1 [20] have been described previously. OATP1B1 cells were cultivated in minimal essential medium (Life Technologies, Paisley, UK) and OATP1B3, OATP2B1 and OCT1 cells were cultivated in Dulbecco’s modified Eagle medium (Sigma, Darmstadt, Germany). Cultivation media were supplemented with 10% fetal calf serum, 100 U/mL penicillin and 100 µg/mL streptomycin. Cells were grown at 37 °C and 5% CO2. Functionality of the cells was confirmed by measuring uptake of prototypic substrates (see Section 2.3 and supplementary material).
# Prototypic substrate uptake was performed as described previously. For this, uptake solutions contained the respective substrate with tracer amounts of radiolabeled substrate. In case of inhibition studies, uptake solutions additionally contained different concentrations of remdesivir. […] Cells were then lysed with 0.2% sodium dodecyl sulfate and intracellular radioactivity was measured by liquid scintillation counting (Tricarb2800, PerkinElmer Life Sciences GmbH, Rodgau, Germany or Hidex 300SL TDCR liquid scintillation counter, Turku, Finland). […]
smiles,measurement,setting,value
CCC(CC)COC(=O)[C@H](C)N[P@](=O)(OC[C@H]1O[C@@](C#N)(c2ccc3c(N)ncnn23)[C@H](O)[C@@H]1O)Oc1ccccc1 [Remdesivir],IC50,OATP1B1 [1],2800 nM
same,Effect on prototypic substrate uptake,"OATP1B1 [2]; 0.05 µM BSP, 10 min uptake, different remdesivir concentrations",significant concentration-dependent inhibitory effect
same,Transporter inhibition at 10 µM,"OATP1B1 [2]; 10 µM remdesivir, BSP as substrate",inhibition
